The text below walks through data of ChEMBL document CHEMBL1201862, “PubChem BioAssay data set” (2004).

Molecules are shown by their SMILES.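 Each compound was tested at five concentrations against cells in 96-well plates for 48 hours. GI50 = concentration required for 50% inhibition of growth.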 Activity calls are given as the source filed them. No stated cut-off is given here; in the data, active = GI50 up to about 1.1 µM and inactive = higher.

What all share (test): NCI-60 cell line screen, 48 h
Experiment [1] concerns ACHN.
Experiment [2] relates to HCT-15.
The test system of experiment [3] is HOP-92.
In experiment [4] the test system is HT-29.
For experiment [5], the system named is IGROV-1.
The subject of experiment [6] is KM12.
Experiment [7] concerns M14.
Experiment [8] has as its system Malme-3M.
For experiment [9], the system named is NCI-H226.
For experiment [10], the system named is OVCAR-4.
Experiment [11] has as its system OVCAR-5.
The test system of experiment [12] is RXF 393.
The subject of experiment [13] is SF-268.
Experiment [14] has as its system SF-295.
The test system of experiment [15] is SNB-19.
Experiment [16] concerns UACC-62.
Experiment [17] deals with UO-31.
Experiment [18] deals with EKVX.

For the molecule `C=CCOCCCCC(C(C)=O)C(=O)OC` (stereo not drawn), the GI50 was > 100 µM (inactive) in experiment [1]; > 100 µM in [2]; 54.8 µM (inactive) in experiment [3]; > 100 µM (inactive) in experiment [4]; > 100 µM (inactive) in experiment [5]; > 100 µM (inactive) in experiment [6]. Besides, the GI50 in [7], in experiment [8], in experiment [9], in [10], in [11] and in [12] was > 100 µM (inactive) in each case. The GI50 in experiment [13], in experiment [14], in experiment [15], in [16] and in [17] was > 100 µM (inactive) in each case.

In the case of `O=C1c2ccccc2C(=O)c2sc(Nc3ccc(Cl)c(Cl)c3)nc21`, the GI50 was 1.75 µM (inactive) in experiment [1]; 14.3 µM (inactive) in experiment [18]; 2.26 µM in experiment [2]; 13.3 µM (inactive) in [3]; 19.7 µM (inactive) in [4]; 3.82 µM (inactive) in experiment [5]. Also, the GI50 was 7.83 µM (inactive) in experiment [6]; 3.22 µM (inactive) in experiment [7]; 4.16 µM (inactive) in [8]; 1.48 µM (inactive) in [9]; 2.21 µM (inactive) in experiment [10]; 2.9 µM (inactive) in experiment [11]. The GI50 in experiment [12] is 7.4 µM (inactive); in experiment [13], 4.97 µM (inactive); in [14] it was 15.2 µM (inactive); in experiment [15] it was 6.04 µM (inactive); in experiment [16], 2.59 µM (inactive); in experiment [17] it was 2.12 µM (inactive).

As for `N=C(N)SCc1ccc(N=C=S)cc1`, the GI50 in experiment [1] was 13.2 µM (inactive); in experiment [18], 15.9 µM (inactive); in experiment [2] it was 11.3 µM; in experiment [3], 11.7 µM (inactive); in [4] it was 15.1 µM (inactive); in [5] it was 12.9 µM (inactive). Further, the GI50 was 14.3 µM (inactive) in experiment [6]; 14.3 µM (inactive) in experiment [8]; 15.6 µM (inactive) in experiment [9]; 14.3 µM (inactive) in [10]; 14.4 µM (inactive) in experiment [11]; 3.56 µM (inactive) in [12]. Besides, the GI50 in experiment [13] was 20.2 µM (inactive); in [14], 17.1 µM (inactive); in [15] it was 13.8 µM (inactive); in experiment [16], 11.4 µM (inactive); in [17] it was 12.5 µM (inactive).

With `CC(C)CC(=O)N1CCN(C(=O)CC(C)C)c2ccccc21`, the GI50 in experiment [1], in [18], in experiment [3], in experiment [4], in [5] and in experiment [6] was > 100 µM (inactive) throughout. For the same molecule, the GI50 in experiment [8], in [11], in [12], in [13], in experiment [14] and in experiment [15] was > 100 µM (inactive) in each case. The GI50 in [17] is > 100 µM (inactive).

As for `O=[N+]([O-])c1ccccc1[S+]([O-])c1ccccc1` (stereo not drawn), the GI50 in experiment [1] is 69.7 µM (inactive); in [2] it was 38.7 µM; in experiment [3], 71 µM (inactive); in experiment [4] it was 62.7 µM (inactive); in experiment [5], 68.2 µM (inactive); in experiment [6], 87.9 µM (inactive). Further, the GI50 is > 100 µM (inactive) in experiment [7]; > 100 µM (inactive) in experiment [8]; 49.9 µM (inactive) in [9]; 49.2 µM (inactive) in experiment [10]; > 100 µM (inactive) in experiment [11]; 84.1 µM (inactive) in experiment [12]. The GI50 in [13] was 77.6 µM (inactive); in experiment [14] it was 90.8 µM (inactive); in experiment [15], 87.3 µM (inactive); in experiment [16], > 100 µM (inactive); in experiment [17], 63.5 µM (inactive).

Regarding `CCc1cccc(C)c1NC(=O)NS(=O)(=O)c1ccc(C)cc1`, the GI50 was > 100 µM (inactive) in [1]; > 100 µM (inactive) in [18]; > 100 µM in [2]; > 100 µM (inactive) in experiment [3]; > 100 µM (inactive) in [5]; > 100 µM (inactive) in experiment [6]. The GI50 in experiment [7], in experiment [8], in [10], in experiment [11], in experiment [12] and in experiment [13] was > 100 µM (inactive) throughout. Moreover, the GI50 in [14], in experiment [15], in experiment [16] and in experiment [17] was > 100 µM (inactive) throughout.

`CC1=C2C(c3ccccc3)(c3ccccc3)C3C=CC2(C=N3)N(C(=O)NC2CCCCC2)C1=O` (stereo not drawn): the GI50 is 19.5 µM (inactive) in experiment [1]; 14.8 µM (inactive) in experiment [18]; 16.4 µM in experiment [2]; 13.4 µM (inactive) in experiment [3]; 18.9 µM (inactive) in [5]; 18.1 µM (inactive) in experiment [6]. The GI50 was 17.5 µM (inactive) in experiment [7]; 17.4 µM (inactive) in experiment [8]; 17.6 µM (inactive) in [10]; 17.7 µM (inactive) in experiment [11]; 17.4 µM (inactive) in [13]; 16.9 µM (inactive) in experiment [14]. Besides, the GI50 in [15] was 17.6 µM (inactive); in experiment [16], 18.7 µM (inactive); in experiment [17], 14.3 µM (inactive).

As for `Cc1ccc(/N=C2\SC(=NN(C)C)S\C2=N/c2ccc(C)cc2)cc1`, the GI50 in experiment [1] is > 100 µM (inactive); in experiment [18], > 100 µM (inactive); in experiment [2] it was > 100 µM; in experiment [3], > 100 µM (inactive); in experiment [4] it was > 100 µM (inactive); in [5] it was > 100 µM (inactive). Besides, the GI50 in [6], in experiment [8], in experiment [9], in [10], in [11] and in experiment [12] was > 100 µM (inactive) throughout. The GI50 in experiment [13], in experiment [14], in experiment [15], in [16] and in experiment [17] was > 100 µM (inactive) each time.

Regarding `NS(=O)(=O)c1ccc(N2C(=O)C(=O)N(c3ccccc3)C2=S)cc1`, the GI50 is > 100 µM (inactive) in experiment [1]; 93.8 µM (inactive) in [18]; 60.3 µM in experiment [2]; 23.6 µM (inactive) in [3]; > 100 µM (inactive) in experiment [4]; > 100 µM (inactive) in experiment [5]. Moreover, the GI50 in experiment [6] is > 100 µM (inactive); in experiment [8], > 100 µM (inactive); in experiment [9], 61.1 µM (inactive); in [10], 30.6 µM (inactive); in experiment [11], > 100 µM (inactive); in experiment [12], 75.7 µM (inactive). Moreover, the GI50 in experiment [13], in experiment [14], in [15], in [16] and in [17] was > 100 µM (inactive) each time.

As to `O=[N+]([O-])c1c(/C=N/c2ccccc2)oc(-c2ccc3c(c2)OCO3)c1-c1ccc2c(c1)OCO2`, the GI50 in experiment [1] is > 100 µM (inactive); in experiment [2], > 100 µM; in experiment [3] it was 65.6 µM (inactive); in [4], > 100 µM (inactive); in experiment [5], > 100 µM (inactive); in experiment [6], > 100 µM (inactive). In addition, the GI50 in experiment [7] was > 100 µM (inactive); in experiment [8] it was > 100 µM (inactive); in [9], 48.8 µM (inactive); in experiment [10], > 100 µM (inactive); in [11], > 100 µM (inactive); in experiment [12], > 100 µM (inactive). Besides, the GI50 in [13] is > 100 µM (inactive); in [14], > 100 µM (inactive); in experiment [15], > 100 µM (inactive); in [16] it was > 100 µM (inactive); in experiment [17], 9.29 µM (inactive).

Turning to `O=C(O)COc1ccc(C(=O)/C(SS/C(C(=O)c2ccc(OCC(=O)O)c(Cl)c2Cl)=C2\C=C(c3ccc(Cl)cc3)SS2)=C2/C=C(c3ccc(Cl)cc3)SS2)c(Cl)c1Cl`, the GI50 in [1] is 8.39 µM (inactive); in [18], 57.1 µM (inactive); in experiment [2] it was 5.78 µM; in experiment [3] it was 4.22 µM (inactive); in [4], 34.5 µM (inactive); in experiment [5], 13.3 µM (inactive). For the same molecule, the GI50 was 16 µM (inactive) in experiment [6]; 13.5 µM (inactive) in experiment [7]; 33.7 µM (inactive) in experiment [8]; 5.66 µM (inactive) in experiment [9]; 5.27 µM (inactive) in [10]; 30.1 µM (inactive) in experiment [11]. Moreover, the GI50 in experiment [13] is 11.2 µM (inactive); in [14], 18.2 µM (inactive); in experiment [15], 8.99 µM (inactive); in experiment [16], 9.51 µM (inactive); in [17], 4.89 µM (inactive).

`CN1CC(=O)N(C)c2[nH]cnc2C1=O`: the GI50 in experiment [1] is > 100 µM (inactive); in experiment [18], > 100 µM (inactive); in experiment [2] it was > 100 µM; in [4], > 100 µM (inactive); in experiment [5] it was > 100 µM (inactive); in [6], > 100 µM (inactive). Also, the GI50 in experiment [7], in [8], in experiment [9], in experiment [10], in [11] and in experiment [12] was > 100 µM (inactive) in each case. The GI50 in experiment [13], in experiment [14], in experiment [15], in [16] and in [17] was > 100 µM (inactive) in each case.
